Results published in US20230391752A1, “PYRROLIDINE-3-CARBOXAMIDE DERIVATIVES AND RELATED USES” (Chulalongkorn University, priority 2020, published 2023).

Assays:
HBV [1] = assay: In vitro anti-HBV activity in HepG2.2.15 cell line (intracellular HBV DNA by qPCR at 1 μM); type: cell-based; conditions: Hepatitis B virus, 144 h; HepG2.2.15 cells, 1 μM compound, 6 days, intracellular HBV DNA as percentage compared to vehicle control (0.5% DMSO)
Outline: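 HepG2.2.15 cells given compound at 1 μM (0.5% DMSO final) for 3 days, then fresh compound-containing medium for 3 more days. After 6 days intracellular HBV DNA measured by qPCR. Expressed as % of 0.5% DMSO vehicle control and binned into letter ranges.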

HBV [2] = assay: Effect on intrahepatic HBV DNA levels in HepG2.2.15 cells (EC50); type: cell-based; conditions: Hepatitis B virus, 144 h, 6 days, intrahepatic HBV DNA by qPCR, read-out: Anti-HBV DNA (EC50)
Protocol: HepG2.2.15 cells were treated with compounds, at various concentrations in 10% FCS containing medium, at 37° C. for three days. After that the medium was removed and fresh medium containing the compound was added to the cells for another 3 days. After 6 days of treatment, intrahepatic HBV DNA from cell lysates were isolated. Then qPCR reaction of DNA was performed to measure total HBV DNA levels using specific primer set. The fifty-percent effective concentrations (EC50) for HBV DNA inhibition, relative to no drug controls, was determined using nonlinear fitting curve model. EC50 ranges for HBV DNA inhibition were as follows: A>0.3 μM, B=0.05-0.3 μM, C<0.05 μM (Table B).

[3] = Cytotoxicity (MTT) in HepG2.2.15 cells; type: cell-based; conditions: human, 6 days treatment, read-out: HepG2.1.15 cytotoxicity (CC50)
Protocol: HepG2.2.15 cells were seeded onto 96-well culture plate and allowed to adhere for 24 hours. The cells were treated with various concentrations of the compounds for 6 days. After treatment, the culture media were discarded and further incubated with serum-free media containing […] of 3-(4,5-dimethylthiazol-2-yl)-2,5-diphenyl tetrazolium bromide (MTT) for 2 hour. The resulting formazan crystals were completely dissolved in dimethyl sulfoxide (DMSO), and then measured absorbance at 570 nm using microplate reader. The concentrations of compounds producing 50% cell death (CC50) were determined from a fitting of concentration-response curve (% cell viability versus concentration) to a four-parameter equation.

HBV core protein (Cp149) = target: T1, HBV core protein (Cp149) (Hepatitis B virus genotype D subtype ayw, UniProt P03146); assay: HBV capsid assembly by size exclusion chromatography (SEC); type: biochemical; conditions: 50 μM compound, 15 μM Cp149, 16 hours at 21° C.
T1 construct: HBV core C-terminally truncated protein (HBV Cp149); made in house
T1 sequence (P03146 1-149): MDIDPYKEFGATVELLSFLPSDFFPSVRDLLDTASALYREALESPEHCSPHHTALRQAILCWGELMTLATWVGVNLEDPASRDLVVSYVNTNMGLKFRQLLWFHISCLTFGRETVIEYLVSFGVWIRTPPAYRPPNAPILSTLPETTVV

Cc1cc(NC(=O)[C@H]2CCN(C(=O)c3[nH]c4ccccc4c3Cl)C2)ccc1F [Example 2, (S)-1-(3-chloro-1H-indole-2-carbonyl)-N-(4-fluoro-3-methylphenyl)pyrrolidine-3-carboxamide]
activity at 1 µM (HBV [1]): < 45%
EC50 (HBV [2]): < 50 nM
CC50 at 6 days [3]: > 25000 nM
Size of induced capsids based on SEC retention times (HBV core protein (Cp149)): capsid retention times between BAY 41-4109 and NVR 3-778

O=C(Nc1cc(F)c(F)c(F)c1)[C@H]1CCN(C(=O)c2cc3ccccc3[nH]2)C1 [Example 4, (S)-1-(1H-indole-2-carbonyl)-N-(3,4,5-trifluorophenyl)pyrrolidine-3-carboxamide]
activity at 1 µM (HBV [1]): < 45%
EC50 (HBV [2]): > 300 nM
CC50 at 6 days [3]: > 25000 nM
Size of induced capsids based on SEC retention times (HBV core protein (Cp149)): induced capsids similar in size to NVR 3-778

C[C@H]1[C@@H](C(=O)Nc2cc(F)c(F)c(F)c2)CCN1C(=O)c1ccc(C#N)[nH]1 [Example 19, (2S,3S)-1-(5-cyano-1H-pyrrole-2-carbonyl)-2-methyl-N-(3,4,5-trifluorophenyl)pyrrolidine-3-carboxamide]
activity at 1 µM (HBV [1]): < 45%
EC50 (HBV [2]): 50 to 300 nM
CC50 at 6 days [3]: > 25000 nM
Size of induced capsids based on SEC retention times (HBV core protein (Cp149)): induced capsids similar in size to NVR 3-778

Cc1ccc(C(=O)N2CC[C@H](C(=O)Nc3cc(F)c(F)c(Cl)c3)[C@@H]2C)[nH]1 [Example 20, (2S,3S)—N-(3-chloro-4,5-difluorophenyl)-2-methyl-1-(5-methyl-1H-pyrrole-2-carbonyl) pyrrolidine-3-carboxamide]
activity at 1 µM (HBV [1]): < 45%
EC50 (HBV [2]): > 300 nM
CC50 at 6 days [3]: 10000 to 25000 nM
Size of induced capsids based on SEC retention times (HBV core protein (Cp149)): induced capsids similar in size to NVR 3-778

C[C@H]1[C@@H](C(=O)Nc2cc(F)c(F)c(F)c2)CCN1C(=O)c1ccc(Cl)[nH]1 [Example 60, (2S,3S)-1-(5-chloro-1H-pyrrole-2-carbonyl)-2-methyl-N-(3,4,5-trifluorophenyl)pyrrolidine-3-carboxamide]
activity at 1 µM (HBV [1]): < 45%
EC50 (HBV [2]): 50 to 300 nM
CC50 at 6 days [3]: > 25000 nM
Size of induced capsids based on SEC retention times (HBV core protein (Cp149)): induced capsids similar in size to NVR 3-778

Cc1cc(NC(=O)[C@H]2CCN(C(=O)c3ccc(-c4c(C)n[nH]c4C)[nH]3)C2)ccc1F [Example 101, (S)-1-(5-(3,5-dimethyl-1H-pyrazol-4-yl)-1H-pyrrole-2-carbonyl)-N-(4-fluoro-3-methylphenyl)pyrrolidine-3-carboxamide]
activity at 1 µM (HBV [1]): < 45%
EC50 (HBV [2]): 50 to 300 nM
CC50 at 6 days [3]: > 25000 nM
Size of induced capsids based on SEC retention times (HBV core protein (Cp149)): induced capsids similar in size to NVR 3-778

Cc1cc(NC(=O)[C@H]2CCN(C(=O)c3ccc(-c4ccnnc4)[nH]3)[C@H]2C)ccc1F [Example 102, (2S,3S)—N-(4-fluoro-3-methylphenyl)-2-methyl-1-(5-(pyridazin-4-yl)-1H-pyrrole-2-carbonyl) pyrrolidine-3-carboxamide]
activity at 1 µM (HBV [1]): < 45%
EC50 (HBV [2]): < 50 nM
CC50 at 6 days [3]: > 25000 nM
Size of induced capsids based on SEC retention times (HBV core protein (Cp149)): induced capsids similar in size to NVR 3-778

Cc1cc(NC(=O)[C@H]2CCN(C(=O)c3ccc(-c4c(C)n[nH]c4C)[nH]3)[C@H]2C)ccc1F [Example 103, (2S,3S)-1-(5-(3,5-dimethyl-1H-pyrazol-4-yl)-1H-pyrrole-2-carbonyl)-N-(4-fluoro-3-methylphenyl)-2-methylpyrrolidine-3-carboxamide]
activity at 1 µM (HBV [1]): < 45%
EC50 (HBV [2]): < 50 nM
CC50 at 6 days [3]: 10000 to 25000 nM
Size of induced capsids based on SEC retention times (HBV core protein (Cp149)): induced capsids similar in size to NVR 3-778

C[C@H]1[C@@H](C(=O)Nc2ccc(F)c(F)c2)CCN1C(=O)c1ccc(-c2ccnnc2)[nH]1 [Example 110, (2S,3S)—N-(3,4-difluorophenyl)-2-methyl-1-(5-(pyridazin-4-yl)-1H-pyrrole-2-carbonyl) pyrrolidine-3-carboxamide]
activity at 1 µM (HBV [1]): < 45%
EC50 (HBV [2]): 50 to 300 nM
CC50 at 6 days [3]: > 25000 nM
Size of induced capsids based on SEC retention times (HBV core protein (Cp149)): induced capsids similar in size to NVR 3-778

Cc1ncnc(C)c1-c1ccc(C(=O)N2CC[C@H](C(=O)Nc3cc(F)c(F)c(F)c3)[C@@H]2C)[nH]1 [Example 111, (2S,3S)-1-(5-(4,6-dimethylpyrimidin-5-yl)-1H-pyrrole-2-carbonyl)-2-methyl-N-(3,4,5-trifluorophenyl)pyrrolidine-3-carboxamide]
activity at 1 µM (HBV [1]): < 45%
EC50 (HBV [2]): < 50 nM
CC50 at 6 days [3]: < 10000 nM
Size of induced capsids based on SEC retention times (HBV core protein (Cp149)): induced capsids similar in size to NVR 3-778

Cc1[nH]nc(C(F)(F)F)c1-c1ccc(C(=O)N2CC[C@H](C(=O)Nc3ccc(F)c(C#N)c3)[C@@H]2C)[nH]1 [Example 113, (2S,3S)—N-(3-cyano-4-fluorophenyl)-2-methyl-1-(5-(5-methyl-3-(trifluoromethyl)-1H-pyrazol-4-yl)-1H-pyrrole-2-carbonyl)pyrrolidine-3-carboxamide]
activity at 1 µM (HBV [1]): < 45%
EC50 (HBV [2]): < 50 nM
CC50 at 6 days [3]: 10000 to 25000 nM
Size of induced capsids based on SEC retention times (HBV core protein (Cp149)): induced capsids similar in size to NVR 3-778

Cc1cc(NC(=O)[C@H]2CCN(C(=O)c3ccc(-c4c(C(F)(F)F)n[nH]c4C)[nH]3)C2)ccc1F [Example 114]
activity at 1 µM (HBV [1]): < 45%
EC50 (HBV [2]): < 50 nM
CC50 at 6 days [3]: 10000 to 25000 nM
Size of induced capsids based on SEC retention times (HBV core protein (Cp149)): induced capsids similar in size to NVR 3-778

Cc1cnnc(C)c1-c1ccc(C(=O)N2CC[C@H](C(=O)Nc3ccc(F)c(F)c3)C2)[nH]1 [Example 115, (S)—N-(3,4-difluorophenyl)-1-(5-(3,5-dimethylpyridazin-4-yl)-1H-pyrrole-2-carbonyl)pyrrolidine-3-carboxamide]
activity at 1 µM (HBV [1]): < 45%
EC50 (HBV [2]): 50 to 300 nM
CC50 at 6 days [3]: > 25000 nM
Size of induced capsids based on SEC retention times (HBV core protein (Cp149)): induced capsids similar in size to NVR 3-778

Cc1cc(NC(=O)[C@H]2CCN(C(=O)c3ccc(-c4c(C)cc[nH]c4=O)[nH]3)[C@H]2C)ccc1F [Example 120, (2S,3S)—N-(4-fluoro-3-methylphenyl)-2-methyl-1-(5-(4-methyl-2-oxo-1,2-dihydropyridin-3-yl)-1H-pyrrole-2-carbonyl)pyrrolidine-3-carboxamide]
activity at 1 µM (HBV [1]): < 45%
EC50 (HBV [2]): 50 to 300 nM
CC50 at 6 days [3]: > 25000 nM
Size of induced capsids based on SEC retention times (HBV core protein (Cp149)): induced capsids similar in size to NVR 3-778

Cc1cc2[nH]ncc2cc1-c1ccc(C(=O)N2CC[C@H](C(=O)Nc3cc(F)c(F)c(F)c3)C2)[nH]1 [Example 122, (S)-1-(5-(6-methyl-1H-indazol-5-yl)-1H-pyrrole-2-carbonyl)-N-(3,4,5-trifluorophenyl) pyrrolidine-3-carboxamide]
activity at 1 µM (HBV [1]): < 45%
EC50 (HBV [2]): 50 to 300 nM
CC50 at 6 days [3]: 10000 to 25000 nM
Size of induced capsids based on SEC retention times (HBV core protein (Cp149)): induced capsids similar in size to NVR 3-778

Cc1cc2[nH]ncc2cc1-c1ccc(C(=O)N2CC[C@H](C(=O)Nc3ccc(F)c(C#N)c3)C2)[nH]1 [Example 123, (S)—N-(3-cyano-4-fluorophenyl)-1-(5-(6-methyl-1H-indazol-5-yl)-1H-pyrrole-2-carbonyl) pyrrolidine-3-carboxamide]
activity at 1 µM (HBV [1]): < 45%
EC50 (HBV [2]): 50 to 300 nM
CC50 at 6 days [3]: 10000 to 25000 nM
Size of induced capsids based on SEC retention times (HBV core protein (Cp149)): induced capsids similar in size to NVR 3-778

Cc1cc(NC(=O)[C@H]2CCN(C(=O)c3ccc(-c4c(C)cn[nH]c4=O)[nH]3)[C@H]2C)ccc1F [Example 125, (2S,3S)—N-(4-fluoro-3-methylphenyl)-2-methyl-1-(5-(5-methyl-3-oxo-2,3-dihydropyridazin-4-yl)-1H-pyrrole-2-carbonyl)pyrrolidine-3-carboxamide]
activity at 1 µM (HBV [1]): < 45%
EC50 (HBV [2]): < 50 nM
CC50 at 6 days [3]: > 25000 nM
Size of induced capsids based on SEC retention times (HBV core protein (Cp149)): induced capsids similar in size to NVR 3-778

Cc1c(-c2ccc(C(=O)N3CC[C@H](C(=O)Nc4cc(F)c(F)c(F)c4)C3)[nH]2)ccc2[nH]ncc12 [Example 128, (S)-1-(5-(4-methyl-1H-indazol-5-yl)-1H-pyrrole-2-carbonyl)-N-(3,4,5-trifluorophenyl) pyrrolidine-3-carboxamide]
activity at 1 µM (HBV [1]): < 45%
EC50 (HBV [2]): 50 to 300 nM
CC50 at 6 days [3]: 10000 to 25000 nM
Size of induced capsids based on SEC retention times (HBV core protein (Cp149)): induced capsids similar in size to NVR 3-778

Cc1ncnc(C)c1-c1ccc2c(Cl)c(C(=O)N3CC[C@H](C(=O)Nc4ccc(F)c(C#N)c4)[C@@H]3C)[nH]c2c1 [Example 138, (2S,3S)-1-(3-chloro-6-(4,6-dimethylpyrimidin-5-yl)-1H-indole-2-carbonyl)-N-(3-cyano-4-fluorophenyl)-2-methylpyrrolidine-3-carboxamide]
activity at 1 µM (HBV [1]): < 45%
EC50 (HBV [2]): 50 to 300 nM
CC50 at 6 days [3]: 10000 to 25000 nM
Size of induced capsids based on SEC retention times (HBV core protein (Cp149)): capsid retention times between BAY 41-4109 and NVR 3-778
